Reference: patent US20220280594A1, “APPLICATION OF POLYPEPTIDE OR DERIVATIVE THEREOF” (CHENGDU HUITAI BIOMEDICINE CO., LTD., priority 2019, published 2022)
Ends that are not written are not given here. PEG = not defined here

How the values were obtained:
fibronectin = fibronectin expression in SK-HEP-1 cells (ELISA); format: cell-based, human; settings: SK-HEP-1, 10 μM, 24 hours, control group 1.62 ± 0.09
Description: SK-HEP-1 cells were cultured in vitro, cells in the logarithmic growth phase were collected, and the cells were seeded evenly in a 24-well plate at a density of 1-3×10^5 cells/well. The cells were cultured in a cell incubator for 4-5 h. PBS was added to the control group. PBS containing polypeptide or derivative thereof (N1-N12) was added to the treatment group. The final concentration of the polypeptide or derivative thereof in the well was 10 μM. After incubating for 24 hours, the cells were collected and the total protein was extracted. ELISA was used to detect the content of fibronectin in total protein.

[1] = system: human liver adenocarcinoma cells (SK-HEP-1); test: transwell invasion assay, SK-HEP-1 cells; format: cell-based; settings: SK-HEP-1 transwell invasion, 10 μM, 24 hours; control group 767 ± 91
Text: (§1) The Transwell chamber system was used in the transwell cell invasion experiment. The chamber has an upper layer and a lower layer, which are separated by an artificial semipermeable membrane in the middle. The upper surface of the semipermeable membrane is coated with a layer of artificial matrigel to simulate extracellular matrix. Cells that have invaded through the matrigel and semi-permeable membrane will attach to the lower surface of the semi-permeable membrane. The invasion ability is evaluated by counting the number of cells on the lower surface of the semi-permeable membrane. The number of cells that have invaded is negatively correlated with the inhibitory effect of the drug on the invasion ability of the tumor cells. Transwell invasion assay was performed as follows: tumor cells were cultured in vitro, cells in logarithmic growth phase were collected, and cell suspension was prepared with fresh serum-free medium at a density of 2-3×10^5 cells/mL. Cells were inoculated, 100 μL/well cell suspension (serum-free medium) in the upper chamber and 600 μL/well complete culture medium in the lower chamber. After incubated in 37° C., 5% CO2 incubator for 4-5 hours, serum-free medium (100 μL/well) was added to the control group, and serum-free medium containing polypeptide or derivative thereof (N1-N54) was added to the upper chamber of the treatment group (100 μL/well), the final concentration of the peptide or derivative thereof in the upper chamber was 10 μM. The cells were incubated continuously for 24 hours, and then fixed with methanol and stained with crystal violet. Images were taken under a microscope and the number of invaded cells was counted with ImageJ.
This example was a transwell cell invasion experiment to evaluate the inhibitory effect of the polypeptide or derivative thereof (N1-N54) on the invasion ability of human liver adenocarcinoma cells (SK-HEP-1). The experimental method was as described in Example 4.

[2] = system: human liver adenocarcinoma cells (SK-HEP-1); test: transwell migration assay, SK-HEP-1 cells; format: cell-based; settings: SK-HEP-1 transwell migration, 10 μM, 24 hours; control group 1 782 ± 108, control group 2 768 ± 86
Description: as §1, with “migration” for “invasion”, “middle.” for “middle. The upper surface of the semipermeable membrane is coated with a layer of artificial matrigel to simulate extracellular matrix.”, “migrated” for “invaded”, “the” for “the matrigel and”
This example was a transwell cell migration experiment to evaluate the inhibitory effect of the polypeptide or derivative thereof (N1-N54) on the migration ability of human liver adenocarcinoma cells (SK-HEP-1). The experimental method was as described in Example 3.

[3] = effect on coagulation function in mice (ACT); format: in vivo, C57BL/6J mice; settings: 200 mg/kg tail vein once a day until Day 24, blood on Day 25; control group 73.50 ± 7.15
Description: C57BL/6J mice were used as experimental subjects (purchased from Chengdu Dashuo Experimental Animal Co., Ltd., male, weighing 16-17 g). Sterile saline or peptide drugs were injected via the tail vein once a day until Day 24. The mice in the control group were injected with sterile saline, and the mice in the administration groups (N1-N12) were injected with polypeptide drugs (200 mg/kg). There were three experimental animals in each group. On Day 25, the eyeballs were removed and blood ([…]) was taken. The coagulation function of the mice was detected by the Abbott i-STAT blood gas analyzer with the ACT test card.

[4] = system: human lung cancer cells (A549) subcutaneous xenograft; test: lung cancer subcutaneous xenograft animal model, intratumoral injection; format: in vivo, mice (BALB/c-nu/nu); settings: intratumoral 5 mg/kg once every other day
Description: (§2) Experimental animals: 4-6 weeks old female immunodeficiency mice (BALB/c-nu/nu, Beijing Vital River Laboratory Animal Technology Co., Ltd.).
(§3) Subcutaneous xenograft animal model. The number of cells inoculated subcutaneously vin mice was about 2×10^6/200 μL. When the volume of the subcutaneous tumor was greater than 100 mm^3, the mice were randomly divided into groups and subjected to treatment. When the mass volume of the tumors in model control group reached 2000 mm^3 or the animal dies, the treatment ended. The animals were dissected, the tumors were taken out, and the weight and volume of the tumors were measured. During the period of the entire experiment, the mice were observed and the body weight was measured every other day.
The method used for the drug efficacy test in the animal model of the subcutaneous xenograft derived from lung cancer cells was as described in Example 5. The tumor cells were human lung cancer cells (A549), and the route of administration was intratumoral injection. There were two groups: the model control group and the polypeptide or its derivative treatment group (N1-N12). The drug dosage of the treatment group was 5 mg/kg, once every other day and the treatment time was 10 days.
The procedure of the efficacy test in this example, route and dosage of administration were the same as in Example 9. The peptides used in the experiment were N13-N32. The treatment time was 20 days.

[5] = system: human pancreatic cancer cells (PANC-1) subcutaneous xenograft; test: pancreatic cancer subcutaneous xenograft animal model, intratumoral injection; format: in vivo, mice (BALB/c-nu/nu); settings: PANC-1 xenograft, intratumoral 5 mg/kg once every other day, 25 days; for Weight of tumor (g) (mean ± SD): control 1.2 ± 0.11; for Volume of tumor (mm^3) (mean ± SD): control 1431.72 ± 174.33
Description: as §2, §3
The method used in the efficacy test on the pancreatic cancer subcutaneous xenograft animal model was as described in Example 5. The pancreatic cancer cells were human pancreatic cancer cells (PANC-1), and the route of administration was intratumoral injection. The experimental groups were model control group and polypeptide or derivative thereof treatment groups (N1-N12). The drug dosage of the N1-N12 treatment group was 5mg/kg, once every other day, and the treatment time was 25 days.

[6] = 10 days, control 1269.32 ± 115.39
[7] = 20 days, control 1700.16 ± 305.72

Row | Substance | Relative protein level (mean ± SD, P), fibronectin (fibronectin) | Number of cells (mean ± SD, P), invaded cells [1] | Number of cells (mean ± SD, P), migrated cells [2] | Activated clotting time (s) (mean ± SD) [3] | Weight of tumor (g) (mean ± SD) ([4]; 10 days, control 1.45 ± 0.15) | Volume of tumor (mm^3) (mean ± SD) [4, 6] | Weight of tumor (g) (mean ± SD) [5] | Volume of tumor (mm^3) (mean ± SD) [5] | Weight of tumor (g) (mean ± SD) ([4]; 20 days, control 1.92 ± 0.13) | Volume of tumor (mm^3) (mean ± SD) [4, 7]
1 | N1: polypeptide with the amino acid sequence set forth in SEQ ID NO: 1 (YRVRFLAKENVTQDAEDN) | 1.3 ± 0.02,** | 343 ± 38,*** | 87 ± 10,**** | 73.64 ± 9.31 | 0.87 ± 0.08 | 851.64 ± 67.38 | 0.52 ± 0.13 | 704.1 ± 152.43 | – | –
2 | N2: SEQ ID NO: 1 with deletion of one amino acid (position 18) at the carboxyl terminal (YRVRFLAKENVTQDAED) | 1.23 ± 0.08,** | 432 ± 47,** | 104 ± 10,**** | 74.82 ± 9.62 | 0.86 ± 0.13 | 809.89 ± 129.93 | 0.72 ± 0.12 | 761.37 ± 150.52 | – | –
3 | N3: SEQ ID NO: 1 with deletion of position 18 and PEG modification at the amino terminal ({PEG}-YRVRFLAKENVTQDAED; reading uncertain) | 1.26 ± 0.09,** | 372 ± 62,*** | 112 ± 10,**** | 72.55 ± 8.27 | 0.79 ± 0.18 | 712.59 ± 200.32 | 0.6 ± 0.1 | 695.11 ± 111.9 | – | –
4 | N4: SEQ ID NO: 1 with deletion of positions 15-18 and positions 1-3 (RFLAKENVTQD) | 1.23 ± 0.11,** | 411 ± 75,** | 357 ± 21,*** | 73.64 ± 8.12 | 0.63 ± 0.12 | 740.79 ± 140.87 | 0.62 ± 0.07 | 673.03 ± 157.33 | – | –
5 | N5: SEQ ID NO: 1 with addition of one amino acid at the carboxyl terminal and deletion of positions 1-3 (RFLAKENVTQDAEDNC) | 1.3 ± 0.11,* | 353 ± 52,*** | 167 ± 12,**** | 72.91 ± 8.04 | 0.69 ± 0.14 | 738.11 ± 167.03 | 0.54 ± 0.1 | 696.52 ± 127.05 | – | –
6 | N6: SEQ ID NO: 1 with deletion of four amino acids at the carboxyl terminal (positions 15-18) (YRVRFLAKENVTQD) | 1.33 ± 0.04,** | 145 ± 29,**** | 157 ± 13,**** | 74.09 ± 8.51 | 0.79 ± 0.18 | 769.35 ± 155.34 | 0.61 ± 0.07 | 538.26 ± 121.04 | – | –
7 | N7: SEQ ID NO: 1 with addition of one amino acid at the carboxyl terminal and substitution A15R (YRVRFLAKENVTQDREDNC) | 1.36 ± 0.04,* | 463 ± 52,** | 127 ± 16,**** | 73.27 ± 8.43 | 0.81 ± 0.16 | 741.86 ± 147.66 | 0.74 ± 0.09 | 671.47 ± 150.71 | – | –
8 | N31: SEQ ID NO: 1 with deletion of positions 3, 4, 11 and 15-18 and PEG modification at the carboxyl terminal (YRFLAKENTQD-{PEG}; reading uncertain) | – | 269 ± 17,**** | 90 ± 6,**** | – | – | – | – | – | 0.71 ± 0.16 | 900.88 ± 255.61
9 | N32: SEQ ID NO: 1 with deletion of positions 1-3, addition of one amino acid and PEG modification at the carboxyl terminal (RFLAKENVTQDAEDNC-{PEG}; reading uncertain) | – | 252 ± 7,**** | 201 ± 13,**** | – | – | – | – | – | 0.88 ± 0.25 | 984.03 ± 184.86
